Legend:
Type in all cases: cell-based, human
cdk2 = assay: Histone H1 kinase assay of cdk2 complexes immunoprecipitated from HeLa cells; settings: for cdk2 kinase activity, time course: 6 mM sodium butyrate, 3, 6, 9, 12 and 16 hours; for cdk2 kinase activity (histone H1): 16 hours
Excerpt: (A) Autoradiography. Cdk2 complexes were immunoprecipitated from HeLa cells and assayed for their activity using histone H1 as substrate. (“[…]”: preimmune serum).
(§1) (B) Cdk2 activity after NaB application. Upper panel: Cdk 2 complexes were immunoprecipitated and assayed for their activity using histone H1 as substrate. Lower panels: Western blot analysis of the cdk 2 complexes which were precipitated, separated in a 12% SDS-PAGE gel and immunoblotted with specific antibodies used in panel A. Loading was verified by incubation with cdk 2 antibodies.
(§2) For cell fractionation, cell monolayers were washed twice with PBS and harvested by trypsinisation. Cell extract preparation and cdk2 activity assays were exactly done as described by Blomberg and Hoffmann, Mol. Cell. Biol. 19 (1999), 6183-6194. In addition, cdk2 was immunoprecipitated and analyzed by immunoblotting. Beads used for cdk2 kinase assay were washed 3 times with lysis buffer (Blomberg and Hoffmann, 1999), incubated with Laemmli sample buffer and boiled for 5 min. Supernatant was analyzed by SDS-PAGE gels. Immunoblotting was carried out with the following antibodies: p21^CIP1 (C24420) and p27^KIP1 (K25020; Transduction Laboratories) or HPV18-E7 (N-19; Santa Cruz, Inc.). Cdk2 specific antibodies or preimmune serum were kindly provided by I. Hoffmann (DKFZ, Heidelberg).
Autoradiography. Cdk2 complexes were immunoprecipitated from HeLa cells and assayed for their activity using histone H1 as substrate. (“PI”: preimmune serum).
Autoradiography. Cdk2 complexes were immunoprecipitated from HeLa cells and assayed for their activity as in (c). […] (Contr.): untreated cells harvested after 3, 6, 9, 12, and 16 hours.

cyclin E = assay: Western blot of cyclin E in HeLa cells; settings: 16 hours
Description: 50 μg of protein were separated on 12% SDS-PAGE minigels. After electrotransfer, the filters were incubated with antibodies against cyclin D1, cyclin E, cyclin A or cdk2, cdk4 or cdk6 specific antibodies. Equal protein loading was confirmed by reincubating the filters with a monoclonal actin antibody.
Cellular extracts were separated in 8-12% SDS PAGE gels and electrotransferred as described elsewhere (Finzer et al., Oncogene 19 (2000), 3235-3244; Soto et al., Oncogene 18 (1999), 3187-3198). The following antibodies were used: cyclin E (HE 12), cyclin D 1 (HD 11), cdk2 (M2), (D-12; Santa Cruz Biotechnology, Inc., Santa Cruz, USA), cdk4 (C-22), cdk6 (C-21), p27^KIP1 (C-19), (K25020), p45^SKP2 (N-19), HPV18-E7 (N-19) and E2F-1 (KH95) (Santa Cruz Biotechnology, Inc. Santa Cruz, USA), p21^CIP1 (C24420; Transduction Laboratories, Lexington, USA), pRB (NCL-RB; Novocastra, UK), p16^INK4 (15126E, Pharmingen, San Diego, USA) and HPV 16 E7 (ZYMED Lab. Inc., San Francisco, USA). Cyclin A was kindly provided by M. Pagano (Pagano et al., EMBO J. 11 (1992), 961-971). Equal protein transfer and loading was routinely checked by incubating the filters with a monoclonal actin antibody (ICN Biomedicals, Ohio, USA).
50 μg of protein was separated on 12% SDS-PAGE minigels. […]

cyclin-cdk2 complex = assay: Western blot analysis of cdk2 immunoprecipitates from HeLa cells (p21, p27, E7 binding)
Excerpt: (B-E) Western blot analysis of the cdk2 complex. Cdk2 precipitates were separated in a 12% SDS-PAGE gel and immunoblotted with p21^CIP1 (B), p27^KIP1 (C) and HPV18 E7 specific antibodies.
as §1, §2
Western blot analysis of the cdk2 complex. Cdk2 precipitates were separated in a 12% SDS-PAGE gel and immunoblotted with p21^CIP1, p27^KIP1 and HPV 18 E7 specific antibodies. Equal loading was verified by incubation with cdk2 antibodies. PI: preimmune serum. (Contr.): untreated cells; (DMSO): DMSO control; (TSA): treated with 330 nM trichostatin A for 16 hours.

[1] = 330 nM trichostatin A, 16 hours

SMILES	cdk2 kinase activity, time course (cdk2)	cdk2 kinase activity, time course (cdk2; listed as NaB)	cdk2 kinase activity (histone H1) (cdk2; 6 mM sodium butyrate, vs untreated control)	cyclin E protein level (cyclin E; 6 mM sodium butyrate)	E7 in the cdk2 complex (cyclin-cdk2 complex; 6 mM sodium butyrate, 16 hours)	association of p21^CIP1 and p27^KIP1 with the cdk2 complex (cyclin-cdk2 complex; 6 mM sodium butyrate, 16 hours)	E7 bound to cyclin-cdk2 complexes, time course (cyclin-cdk2 complex; NaB time course)	association of p21^CIP1 and p27^KIP1 with the cdk2 complex, time course (cyclin-cdk2 complex; NaB time course)	cdk2 kinase activity (histone H1) (cdk2; 330 nM trichostatin A)	cyclin E protein level (cyclin E; 330 nM trichostatin A)	E7 binding to the cdk2 complex (cyclin-cdk2 complex; [1])	interaction of p21^CIP1 and p27^KIP1 with cdk2 (cyclin-cdk2 complex; [1])
CCCC(=O)[O-].[Na+] [sodium butyrate]	still active after 9 hours, but abruptly declined 3 hours later	remained active up to 9 hours, but immediately declined between 12-16 hours	completely abolished	strongly increased	completely disappeared	both CK1s became associated with the cdk2 complex	completely disappeared between 12-16 hours	threshold amounts of both CKIs became associated with the cdk2 complex (between 12-16 hours)	–	–	–	–
CC(/C=C/C(=O)NO)=C\[C@@H](C)C(=O)c1ccc(N(C)C)cc1 [trichostatin A]	–	–	–	–	–	–	–	–	Suppresses	Upregulates	Loss of E7 Binding	Enhanced Interaction

Source: patent publication US20040132817A1, “Use of an histone deacetylase inhibitor for the treatment of diseases associated with an hpv infection” (priority 2001, published 2004)
